The results in this text go back to patent US20260374809A1, “COMPOUNDS USEFUL FOR THE TREATMENT AND/OR CARE OF THE SKIN, HAIR, NAILS AND/OR MUCOUS MEMBRANES” (Lubrizol Advanced Materials, Inc., priority 2022, published 2026).

Assay [1] relates to Human dermal fibroblast (HDF). Nature of the assay: Collagen contraction assay with human dermal fibroblasts in collagen gel. The format is cell-based. Particulars: 0.01 mg/ml, 24 h post detachment, without MES; basal control = 100.0, MES = 144.4. The text has this: It is known that a remarkable change in the mechanical properties of the skin with aging is due to reduced contractile capacity as well as reduced migration activity of fibroblasts. Healthy fibroblasts induce contraction of the collagen network through physical interactions with collagen fibers. The collagen network is essential for maintaining the firmness of the skin. The collagen contraction assay is a well-known experimental approach to measuring the cell-induced contraction of the extracellular matrix. In this assay, the capacity of fibroblasts, embedded in a collagen-based gel, to reduce the gel diameter is evaluated.
By improving the contractile forces, the mechanical tension can be improved, which can be associated to “lifting” effect at the scale of fibroblasts.
The microcurrent system was built by coupling gold electrodes (in order to avoid medium oxidation leading to cell death when current goes through) to opposite sides of 60 mm Petri dishes (separated by 4 cm). When a voltage is applied, an electric field generates between opposite positive and negative poles and current passes through the culture. During the stimulation time (2 hours), each of the 60 mm Petri dishes is connected to a voltage source that allows regulating the amount of current that passes through each of them. For these experiments, a […] current (which corresponds to approx. 67 mV/mm) was used.
Human dermal fibroblast (HDF) cell culture and expansion: Cells were thawed in T75 flasks and the growth medium was changed every 2 days of cell culture. After 7 days, cells were expanded to obtain a total amount of 7×10^6 cells to be used in the experiments.
Once finished the expansion, cultures are trypsinized and seeded at 3×10^5 cells/60 mm Petri up to a total of 10 dishes per replicate. These ten dishes correspond to one experiment (Control/-MES vs+MES) at a specific concentration. Peptide treatment was performed at 0.01 mg/ml.
After an overnight (O/N) incubation to allow cell attachment, each Petri dish is treated at the corresponding concentration with 4 ml of specific medium for a total of 24 hours in both conditions (without MES and with MES). Peptide treatment on the dishes that are not stimulated with microcurrent is initiated 2 hours in advance, and their passage into 3D cultures occurs at the same time as the microcurrent stimulation of the other dishes. […]
Each 3D culture is prepared by mixing collagen solution with the culture medium corresponding to each of the conditions (without peptide or with peptide). […] Images of collagen gel diameter are taken of each well at 24 hours post detachment and analyzed by ImageJ. […]
[formula] • An initial area is stablished. […] Area t=0 gel […]1.86 cm^2 (Area of a well in a 24-well plate) • Quantification of Area at t=x; Ax. […]

A further assay has as its system EDA-Fn. Nature of the assay: Myofibroblast marker EDA-Fn by immunofluorescence. It counts as cell-based, human. As to conditions: 0.01 mg/ml; basal control = 100.0, MES = 135.7. As to the method: EDA-Fn is an isoform of fibronectin, which serves as marker for the presence of myofibroblasts.
After the experimental protocol described in EXAMPLE 8, recovery of the cells was performed by the extraction of cells from the 3D culture and their reseeding on glass coverslips. To recover cells, the collagen hydrogel was digested in agitation at 37 °C with a collagenase solution. After the digestion, cycles of centrifugation and washing were performed to eliminate collagen debris. Then, cells were seeded on coverslips in replicated as in the conditions of the 3D cultures of EXAMPLE 8. For future fluorescence analysis, cells were seeded on glass coverslips previously coated with collagen at a density of 3×10^5 fibroblasts/cm^2, let attach overnight and fixed with 4% PFA.
Glass coverslips were used to perform EDA-Fn immunofluorescence, a marker of myofibroblasts. EDA-Fn immunofluorescence was performed in control samples (with or without MES) and after peptide treatment (PEP-1 0.01 mg/ml). Briefly, cells attached to coverslips were permeabilized by 0.5% Triton X-100 in PBS for 10 minutes at room temperature. Then, blocking solution (4% BSA in PBS) was added for 2 hours. […] Finally, green fluorescence intensity was quantified in Operetta (PerkinElmer) for each condition and normalized by the number of nuclei. […]

The subject of assay [2] is Musclebind Like Protein 1 (MBNL1). Nature of the assay: MBNL1 protein expression in human skeletal muscle cells (hSKMC), HTRF. It counts as cell-based. As to conditions: 0.5 mg/ml, 48 hours, relative to basal control. As to the method:
Musclebind Like Protein 1 (MBNL1) in Human Skeletal Muscle Cells (hSKMC)
An increase of MBNL-1 in muscle cells helps maintaining the tone of facial skin muscles. Thus, compounds able to enhance MBNL-1 can be used as a good approach for cosmetic treatment of sagging facial appearance.
Human skeletal muscle cells (hSKMC) were cultured at 100,000 cells in T25 flasks with growth medium. After 4 days, cells reached around 80% of confluency and were seeded at 150,000 cells per well in 12-well plates in growth medium. Cells were incubated for 72 hours and then they were changed to differentiation medium and incubated during 48 hours. At the end of this period, cells were treated with defined peptides (0.5 mg/ml) and with medium alone for control conditions during 48 hours in differentiation medium. Cells were also treated with 2 mM of ketoprofen as a positive control.
After the incubation period, cells were lysed and frozen at −80 °C. For total protein quantification protein extract was measured by Bicinchoninic Acid (BCA) method. MBNL1 protein detection was performed by Homogeneous Time Resolved Fluorescence (HTRF) technology. Normalization of MBNL1 levels were performed by total protein quantification for each condition. Results are expressed as a relative MBNL1 protein level respect to control conditions. At least 3 replicates were carried out per condition.
(In general: In TR-FRET formats the signal depends on donor and acceptor labels being close together.)

Where a SMILES comes first, the peptide text is derived from it.

As to `CC(C)C[C@H](N)C(=O)N1CCC[C@H]1C(=O)N[C@H](C(=O)N[C@H](C(=O)O)[C@@H](C)O)C(C)C` [PEP-1, H-Leu-Pro-Val-Thr-OH] (H-LPVT-OH), in assay [1], the “Collagen contraction, MEAN ± SEM” value was 137.5 ± 7.8%. The “Fold induction of EDA-Fn as myofibroblast marker, % Fold induction (FI) MEAN ± SEM” value with EDA-Fn is given as 172.3 ± 14.36%. Besides, the “% MBNL1 vs Basal control” value in assay [2] was 213.0%.
